Several values for one entry are separate records, joined by “and”; a condition that tells them apart may be missing. Equal entries are not always repeated. Where two headings read alike, the source gives them in different places.
What was measured:
[1] = tested on: P. falciparum Dd2-2D4 NCP26 selections S1-3; test: ABS growth assay on bulk populations and clones from NCP26 resistance selections S1-3; format: cell-based, Plasmodium falciparum
PfcProRS = molecular target: T1, PfcProRS (Plasmodium falciparum, UniProt Q8I5R7); format: binding; conditions: for dose-response signal (normalized), SI Fig 8: single replicates, listed as NCP26 (3)
T1 construct: made in house; host or cells: E. coli SoluBL-21
T1 sequence (Q8I5R7 249-746): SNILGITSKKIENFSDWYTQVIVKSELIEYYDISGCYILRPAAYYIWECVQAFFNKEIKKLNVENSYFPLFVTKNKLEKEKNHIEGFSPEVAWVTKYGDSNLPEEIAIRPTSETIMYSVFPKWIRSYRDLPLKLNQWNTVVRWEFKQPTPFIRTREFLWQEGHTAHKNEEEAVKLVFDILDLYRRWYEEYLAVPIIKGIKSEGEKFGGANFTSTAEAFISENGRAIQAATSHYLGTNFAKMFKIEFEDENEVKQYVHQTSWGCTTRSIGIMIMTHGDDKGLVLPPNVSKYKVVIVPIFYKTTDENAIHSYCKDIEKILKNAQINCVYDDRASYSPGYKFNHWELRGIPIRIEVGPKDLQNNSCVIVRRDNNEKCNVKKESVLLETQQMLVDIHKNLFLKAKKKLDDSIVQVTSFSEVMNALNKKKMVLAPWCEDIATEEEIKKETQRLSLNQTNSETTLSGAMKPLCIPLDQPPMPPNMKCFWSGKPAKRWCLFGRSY

HsProRS = HsProRS (Homo sapiens, UniProt P07814); test: TR-FRET ligand displacement assay with tracer MAT379 (CoraFluor-1-Halo and anti-His6 antibody formats); format: binding; parameters: made in house; host or cells: E. coli SoluBL-21; conditions: for TR-FRET dose-response, normalized signal (SI Fig 11): individual replicates; for TR-FRET dose-response, normalized signal (SI Fig 11) / normalized TR-FRET ligand displacement signal, dose-response replicates (SI Fig 6): listed as NCP26 (3)
HsProRS, sequence (P07814 996-1512): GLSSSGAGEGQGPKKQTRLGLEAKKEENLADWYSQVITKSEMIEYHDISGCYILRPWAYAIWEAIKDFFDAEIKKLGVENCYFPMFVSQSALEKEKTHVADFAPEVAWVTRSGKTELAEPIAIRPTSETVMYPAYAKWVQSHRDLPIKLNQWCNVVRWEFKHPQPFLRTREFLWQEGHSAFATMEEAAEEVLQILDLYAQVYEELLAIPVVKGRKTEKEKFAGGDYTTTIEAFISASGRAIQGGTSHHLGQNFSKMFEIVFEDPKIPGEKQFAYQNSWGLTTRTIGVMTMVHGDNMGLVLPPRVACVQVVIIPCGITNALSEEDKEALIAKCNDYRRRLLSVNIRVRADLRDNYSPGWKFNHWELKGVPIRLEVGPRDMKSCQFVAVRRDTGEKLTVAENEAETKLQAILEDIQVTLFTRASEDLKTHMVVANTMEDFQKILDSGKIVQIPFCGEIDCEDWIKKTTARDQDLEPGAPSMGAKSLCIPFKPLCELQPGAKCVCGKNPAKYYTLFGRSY

O=C(NC1Cc2ccccc2C1)c1nccnc1NC(=O)N1CCCCC1 [NCP26]
parasite growth, dose-response point ([1]; S3 - Clone A8, Log[NCP26] (M) -6.505): 94 and 102 and 97
parasite growth, dose-response point ([1]; S3 - Clone A8, Log[NCP26] (M) -6.806): 101 and 99 and 104
parasite growth, dose-response point ([1]; S3 - Clone A8, Log[NCP26] (M) -7.107): 100 and 103 and 99
parasite growth, dose-response point ([1]; S3 - Clone A8, Log[NCP26] (M) -7.408): 104 (2×) and 98
parasite growth, dose-response point ([1]; S3 - Clone B2, Log[NCP26] (M) -6.505): 76 and 92 and 86
parasite growth, dose-response point ([1]; S3 - Clone B2, Log[NCP26] (M) -6.806): 88 and 90 and 99
parasite growth, dose-response point ([1]; S3 - Clone B2, Log[NCP26] (M) -7.107): 113 and 109 and 107
parasite growth, dose-response point ([1]; S3 - Clone B2, Log[NCP26] (M) -7.408): 108 and 109
parasite growth, dose-response point ([1]; S3 - Clone B3, Log[NCP26] (M) -6.505): 92 and 95
parasite growth, dose-response point ([1]; S3 - Clone B3, Log[NCP26] (M) -6.806): 92 and 96 and 98
parasite growth, dose-response point ([1]; S3 - Clone B3, Log[NCP26] (M) -7.107): 99 and 94
parasite growth, dose-response point ([1]; S3 - Clone B3, Log[NCP26] (M) -7.408): 105 and 101 and 104
parasite growth, dose-response point ([1]; S3 - Clone B7, Log[NCP26] (M) -6.505): 101 and 95 and 100
parasite growth, dose-response point ([1]; S3 - Clone B7, Log[NCP26] (M) -6.806): 99 and 96 and 101
parasite growth, dose-response point ([1]; S3 - Clone B7, Log[NCP26] (M) -7.107): 98 and 94 and 99
parasite growth, dose-response point ([1]; S3 - Clone B7, Log[NCP26] (M) -7.408): 105 and 98
binding mode with respect to substrates (ATP, proline) (PfcProRS): proline-uncompetitive
fold increased affinity in the presence of proline (PfcProRS): 52 fold
dose-response signal (normalized), SI Fig 8 (PfcProRS; Log[inhibitor] (M) -6.301): -4.45E-02 and 1.59E-01 and 5.71E-02 and 4.55E-02 and 8.14E-02 and 4.48E-02
dose-response signal (normalized), SI Fig 8 (PfcProRS; Log[inhibitor] (M) -6.602): 1.17E-01 and 1.10E-01 and 1.62E-01 and 1.06E-01 and 1.14E-01 and 3.45E-02
dose-response signal (normalized), SI Fig 8 (PfcProRS; Log[inhibitor] (M) -6.904): -7.84E-03 and 4.23E-02 and 1.85E-01 and 6.33E-02 and -1.22E-02 and 1.04E-01
dose-response signal (normalized), SI Fig 8 (PfcProRS; Log[inhibitor] (M) -7.205): 1.30E-01 and 1.69E-01 and 1.26E-02 and 6.32E-02 and 1.43E-01 and 5.72E-02
dose-response signal (normalized), SI Fig 8 (PfcProRS; Log[inhibitor] (M) -7.506): 2.32E-01 and 1.89E-01 and 1.64E-01 and 2.04E-01 and 7.73E-02 and 1.02E-01
dose-response signal (normalized), SI Fig 8 (PfcProRS; Log[inhibitor] (M) -7.796): 3.08E-01 and 3.64E-01 and 4.11E-01 and 4.02E-01 and 3.25E-01 and 3.10E-01
dose-response signal (normalized), SI Fig 8 (PfcProRS; Log[inhibitor] (M) -8.097): 5.23E-01 and 5.87E-01 and 9.12E-01 and 7.05E-01 and 5.54E-01 and 7.03E-01
dose-response signal (normalized), SI Fig 8 (PfcProRS; Log[inhibitor] (M) -8.407): 7.84E-01 and 7.32E-01 and 7.98E-01 and 9.93E-01 and 8.87E-01 and 8.26E-01
dose-response signal (normalized), SI Fig 8 (PfcProRS; Log[inhibitor] (M) -8.708): 9.57E-01 and 1.08E+00 and 9.98E-01 and 8.58E-01 and 8.40E-01 and 9.70E-01
dose-response signal (normalized), SI Fig 8 (PfcProRS; Log[inhibitor] (M) -9.018): 9.48E-01 and 9.31E-01 and 1.13E+00 and 1.15E+00 and 1.02E+00 and 9.66E-01
dose-response signal (normalized), SI Fig 8 (PfcProRS; Log[inhibitor] (M) -9.319): 9.22E-01 and 1.00E+00 and 1.07E+00 and 1.03E+00 and 1.09E+00 and 9.57E-01
dose-response signal (normalized), SI Fig 8 (PfcProRS; Log[inhibitor] (M) -9.620): 1.10E+00 and 1.04E+00 (2×) and 9.95E-01 and 1.13E+00 and 9.21E-01
dose-response signal (normalized), SI Fig 8 (PfcProRS; Log[inhibitor] (M) -9.921): 9.45E-01 and 1.02E+00 and 1.05E+00 and 9.10E-01 and 9.27E-01 and 9.41E-01
dose-response signal (normalized), SI Fig 8 (PfcProRS; Log[inhibitor] (M) -10.097): 1.10E+00 and 1.01E+00 and 1.17E+00 and 9.78E-01 and 8.32E-01 and 1.04E+00
dose-response signal (normalized), SI Fig 8 (PfcProRS; Log[inhibitor] (M) -10.585): 1.14E+00 and 1.18E+00 and 8.42E-01 and 8.75E-01 and 9.70E-01 and 1.02E+00
PfcProRS -- best Kd (PfcProRS; SI Fig 16a, values on -log scale): 8.599
fold increased affinity in the presence of proline (HsProRS; 100 μM proline vs no substrates): > 750 fold
Kd (HsProRS; HsProRS (KD [nM]) + ATP, 500 μM ATP, 250 nM MAT379): 678 nM
Kd (HsProRS; HsProRS (KD [nM]) −, absence of substrates, 250 nM MAT379): 271 nM
Kd (HsProRS; HsProRS - best Kd, SI Fig 16a, values on -log scale): 0.351 nM
TR-FRET dose-response, normalized signal (SI Fig 11) (HsProRS; Log[inhibitor] (M) -5.000): 3.90E-02 and 5.46E-02 and 7.26E-02
normalized TR-FRET ligand displacement signal, dose-response replicates (SI Fig 6) (HsProRS; Log[inhibitor] (M) -5.000): -7.74E-03 and 7.74E-03
TR-FRET dose-response, normalized signal (SI Fig 11) (HsProRS; Log[inhibitor] (M) -5.301): 8.66E-02 (2×) and 6.05E-02
normalized TR-FRET ligand displacement signal, dose-response replicates (SI Fig 6) (HsProRS; Log[inhibitor] (M) -5.301): 1.56E-02 and 1.09E-02
TR-FRET dose-response, normalized signal (SI Fig 11) (HsProRS; Log[inhibitor] (M) -5.601): 1.54E-01 and 1.44E-01 and 1.56E-01

Source: paper PMC9403976, “Elucidating the path to Plasmodium prolyl-tRNA synthetase inhibitors that overcome halofuginone resistance” (Nature Communications, 2022)
